Data reported in PMC8868383, “Pharmacokinetics and Pharmacodynamics of Key Components of a Standardized Centella asiatica Product in Cognitively Impaired Older Adults: A Phase 1, Double-Blind, Randomized Clinical Trial” (Antioxidants, 2022).
Values joined by “and” are separate entries in the source; they are usually repeats but may differ in a detail not shown here. Equal entries are not always repeated. Where two headings read alike, the source gives them in different places.

Key:
[1] = Plasma pharmacokinetics after single oral administration of CAP; settings: for Cmax / Tmax / AUC(0-t) / half-life: human; for Cmax / Tmax / AUC(0-t) / half-life / Fold difference in Cmax between the 2 g and 4 g doses: plasma; for Time of preliminary (initial) peak of plasma concentration-time curve / Time of larger secondary peak of plasma concentration-time curve: mean profile, both doses (2 g and 4 g)
Excerpt: (§1) This was a single-center, randomized, double blind, crossover study of two acute dosages (2 g and 4 g) of CAP. The participants were randomized using an arm equivalence design, by the OHSU Research Pharmacy, to receive each dose of CAP in a different order to prevent tolerance effects and ensure some data was available from each dose in the case of a dropout after the first dose. All study personnel were blinded to the participant’s randomization until all data analysis had been completed. All participants consumed both doses of CAP and attended two study visits a minimum of 14 days apart. They were placed on a low phytochemical diet for 48 h prior to and during each study visit in order to minimize interference from dietary TTs and CQAs and ensure that any such compounds identified in the plasma and urine were derived from C. asiatica. To ensure compliance, all participants completed a diet diary over the course of the 48 h. The participants fasted for a minimum of 10 h prior to each study visit, excluding water, to standardize gastrointestinal transit time and minimize delayed absorption due to the presence of food.
(§2) In the morning of each study visit, a baseline blood sample (20 mL) was collected via a peripheral intravenous catheter. […] Blood samples (10 mL) were collected via the peripheral catheter over a 10 h post-administration period at 0.25, 0.5, 0.75, 1, 1.5, 2, 2.5, 3, 4, 6, 8, and 10 h. Blood was transferred to a BD Vacutainer™ heparinized tube (Fisher Scientific) and centrifuged for 10 min at 10,000× g and 4 °C to isolate plasma. Plasma was frozen in 2mL aliquots and kept at −80 °C until analysis. […] All participants were asked to refrain from consuming food until 2 h after consumption of the study intervention at each visit to prevent delayed absorption due to food effects. Breakfast (at 2 h following CAP ingestion), lunch, dinner and snacks, all meeting the low phytochemical criteria, were provided by the OCTRI Bionutrition Unit. Urine samples were collected at baseline and over the 10 h post-administration period at each visit to measure renal excretion. All post-administration urinary output was combined in a 2 L urine collection container stored at 4 °C during the study visit. The total amount of post CAP administration urine was recorded, and a 50 mL aliquot was frozen at −80 °C for analysis. At the second visit, participants consumed the dose they were not randomized to receive at the first visit and underwent all study procedures previously described.
(§3) Sample preparation was performed using a protein precipitation method adapted from Cheng et al. [55] Duplicate plasma samples (50 µL) were combined with an ascorbic acid solution (1%; 10 µL) and incubated for 20 min at 37 °C using A. aerogenes sulfatase (2.5 µL; 0.025–0.05 units) and E. coli glucuronidase (2.5 µL; 12.5–125 units) dissolved in 50% aqueous glycerol to release the analytes from their sulfate and β-D-glucuronic acid esters. Proteins were precipitated by adding a crash solution (200 µL) consisting of 3:1 acetonitrile:methanol containing internal standards (20 µg/mL d3-isoferulic acid, d3-dihydroisoferulic acid, and chrysin or 50 µg/mL ^13C3-ferulic acid and ursolic acid), holding for 30 min at 4 °C and then centrifuged for 5 min at 10,000× g. The supernatant was filtered through a 0.22 µm Ultrafree MC-GV spin filter (Millipore Sigma) at 10,000× g for 5 min at 4 °C and then transferred to vials for analysis. For TT analysis, the concentration of organic solvent (the sample filtrate) to water in each sample was adjusted to a 60:40 ratio to optimize the peak shape, and for CQA analysis, the concentration of organic solvent to 1% aqueous formic acid in each sample was adjusted to a 90:10 ratio to optimize the peak shape.

[2] = Renal (urinary) excretion over 10 h after CAP administration; settings: for Predominant form (free or conjugated) in post-administration urine: 10 h urine; for Predominant form (free or conjugated) in post-administration urine / Detection in 10 h post-administration urine: 2 g and 4 g CAP
Description: (§4) All participants were asked to refrain from consuming food until 2 h after consumption of the study intervention at each visit to prevent delayed absorption due to food effects. […] Urine samples were collected at baseline and over the 10 h post-administration period at each visit to measure renal excretion. All post-administration urinary output was combined in a 2 L urine collection container stored at 4 °C during the study visit. The total amount of post CAP administration urine was recorded, and a 50 mL aliquot was frozen at −80 °C for analysis. At the second visit, participants consumed the dose they were not randomized to receive at the first visit and underwent all study procedures previously described.
(§5) Calibration curves were prepared in baseline urine and treated with sham enzyme.
(§6) Plasma and urine samples collected at the participant’s screening visit were analyzed in parallel with the samples collected from each study visit to determine the efficacy of the low phytochemical diet in reducing analyte levels from dietary sources. The analysis of the prepared plasma and urine samples was performed at the OHSU Bioanalytical Shared Resource/Pharmacokinetics Core Laboratory (Portland, OR). […] The injection volume was 5 µL. Gradient elution was performed using a mobile phase of solvent A (water containing 0.05% v/v acetic acid) and solvent B (acetonitrile with 0.05% v/v acetic acid). The flow rate was 0.8 mL/min.

[3] = Analyte levels in screening and baseline plasma and urine (low phytochemical diet check); settings: for Baseline Total, urine concentration / Baseline Unconjugated, urine concentration: baseline on study visits after 48 h low phytochemical diet, before CAP; for Baseline Total, urine concentration / Baseline Unconjugated, urine concentration / Screening Unconjugated, urine concentration / Screening Total, urine concentration: mean ± SEM, n = 4; for Screening Unconjugated, urine concentration / Screening Total, urine concentration: screening visit; for Screening Unconjugated, urine concentration / Screening Total, urine concentration / Plasma concentration at screening visit: uncontrolled diet; for Screening Unconjugated, urine concentration: sham enzyme; for Screening Total, urine concentration: with enzyme hydrolysis; for Plasma concentration at screening visit: before any CAP
Excerpt: as §1, §5
(§7) Plasma and urine samples collected at the participant’s screening visit were analyzed in parallel with the samples collected from each study visit to determine the efficacy of the low phytochemical diet in reducing analyte levels from dietary sources. The analysis of the prepared plasma and urine samples was performed at the OHSU Bioanalytical Shared Resource/Pharmacokinetics Core Laboratory (Portland, OR). For detection of TT glycosides and aglycones, an analytical method adapted from Nair et al. [56] was used. […] The injection volume was 20 µL. Gradient elution was performed using a mobile phase of solvent A (water containing 10 mM ammonium acetate and 0.02% ammonium hydroxide; pH 8.5) and solvent B (methanol). The flow rate was 0.42 mL/min. […] The injection volume was 5 µL. Gradient elution was performed using a mobile phase of solvent A (water containing 0.05% v/v acetic acid) and solvent B (acetonitrile with 0.05% v/v acetic acid). The flow rate was 0.8 mL/min.

[4] = human, in vivo
Excerpt: as §1, §2, §3

[5] = in vivo
Description: as §4, §5, §6

[6] = in vivo; remark: listed apart in the source
Excerpt: as §1, §5, §7

[7] = parameters: method as in PMID 19167274; settings: dogs given encapsulated aqueous extracts of C. asiatica standardized to asiaticoside; cited from earlier work
[8] = parameters: method as in PMID 2329813, PMID 8020529; settings: past human studies of TTFCA or asiatic acid alone, capsule form; cited from earlier work
[9] = parameters: method as in PMID 33767223; settings: two separate doses (250 mg and 500 mg), formulation with solubilizing agent; cited from earlier work
clinical = settings: human, in vivo, po
Excerpt: as §1, §2, §3

| SMILES | Cmax ([1]; oral) [ng/mL] | Tmax ([1]; oral) [h] | AUC(0-t) ([1]; po, 2 g) [ng·h/mL] | Cmax ([1]; po, 2 g) [ng/mL] | Tmax ([1]; po, 2 g) [h] | half-life ([1]; po, 2 g) [h] | AUC(0-t) ([1]; po, 4 g) [ng·h/mL] | Cmax ([1]; po, 4 g) [ng/mL] | Tmax ([1]; po, 4 g) [h] | half-life ([1]; po, 4 g) [h] | Time of preliminary (initial) peak of plasma concentration-time curve [1] [h] | Predominant form (free or conjugated) in post-administration urine [2] | Fold difference in Cmax between the 2 g and 4 g doses [1] | Baseline Total, urine concentration [3] [ng/mL] | Screening Unconjugated, urine concentration [3] [ng/mL] | Screening Total, urine concentration [3] [ng/mL] | Plasma concentration at screening visit [3] [ng/mL] | other results |
| --- | --- | --- | --- | --- | --- | --- | --- | --- | --- | --- | --- | --- | --- | --- | --- | --- | --- | --- |
| C[C@H]1[C@H](C)CC[C@]2(C(=O)O)CC[C@]3(C)C(=CC[C@@H]4[C@@]5(C)C[C@@H](O)[C@H](O)[C@@](C)(CO)[C@@H]5[C@H](O)C[C@]43C)[C@H]12 [MA, madecassic acid] | 36 to 68 | 2 | 101 ± 16 | 38 ± 3 | 2 ± 0.5 | 1.7 ± 0.5 | 187 ± 48 | 63 ± 10 | 2 ± 0.5 | 1.7 ± 0.9 | 0.75 | – | – | – | – | – | – | Cmax ([1]; oral, 2 g): 32 ng/mL; Tmax ([1]; oral, 2 g): 0.75 h; Cmax ([1]; oral, 4 g): 47 ng/mL; Tmax ([1]; oral, 4 g): 3 h |
| COc1cc(CCC(=O)O)ccc1O [DHFA, dihydroferulic acid] | 11 to 20 | 4 | 42 ± 18 | 11 ± 5 | 3.4 ± 1 | 4.5 ± 1.6 | 77 ± 25 | 20 ± 6 | 3.5 ± 0.5 | 2.5 ± 0.3 | – | predominantly conjugated form | two-fold | 273 ± 131 | 179 ± 74 | 939 ± 507 | 6.6 ± 3.2 | Baseline Unconjugated, urine concentration [3]: 8 ± 6 ng/mL |
| O=C(O)CCc1ccc(O)c(O)c1 [DHCA, dihydrocaffeic acid] | 1 to 2 | 4 | 3 ± 0.4 | 1 ± 0.4 | 3.25 ± 0.5 | 4.8 ± 1.3 | 6 ± 1 | 2 ± 0.2 | 3.5 ± 0.5 | 1.1 ± 0.4 | 2 | predominantly conjugated form | two-fold | 9 ± 3 | 46 ± 36 | 117 ± 64 | 0.3 ± 0.2 | Time of larger secondary peak of plasma concentration-time curve [1]: 4 h; Baseline Unconjugated, urine concentration [3]: 0.9 ± 2 ng/mL |
| O=C(O)CCc1cccc(O)c1 [HPP, 3-(3-hydroxyphenyl)propionic acid] | 32 to 42 | 6 | 100 ± 46 | 32 ± 18 | 6 ± 1.4 | 2.3 ± 0.3 | 189 ± 77 | 42 ± 18 | 5.5 ± 1.7 | 1.8 ± 0.7 | – | predominantly conjugated form | – | 2 ± 2 | 23 ± 14 | 91 ± 48 | 49.6 ± 30.4 | – |
| COc1cc(/C=C/C(=O)O)ccc1O [FA, ferulic acid] | – | – | – | – | – | – | – | – | – | – | – | – | – | – | – | – | – | Cmax, range over the 2 g and 4 g doses as stated in text [4]: 1 to 1.4 ng/mL; Tmax as stated in text [4]: 6 h; Predominant form (free or conjugated) in post-administration urine [5]: predominantly conjugated form; Plasma concentration at screening visit [6]: 1.3 ± 0.2 ng/mL; Screening Total, urine concentration [6]: 372 ± 78 ng/mL; Screening Unconjugated, urine concentration [6]: 7 ± 3 ng/mL |
| COc1ccc(/C=C/C(=O)O)cc1O [IFA, isoferulic acid] | 0.9 to 2 | 0.75 | 5 ± 2 | 0.9 ± 0.3 | 1.3 ± 0.6 | 8.8 ± 5.7 | 8 ± 0.4 | 2 ± 0.1 | 1 ± 0.4 | 2.9 ± 0.6 | – | predominantly conjugated form | two-fold | 5 ± 2 | 4 ± 3 | 472 ± 246 | 2.3 ± 1.0 | – |
| C[C@H]1[C@H](C)CC[C@]2(C(=O)O)CC[C@]3(C)C(=CC[C@@H]4[C@@]5(C)C[C@@H](O)[C@H](O)[C@@](C)(CO)[C@@H]5CC[C@]43C)[C@H]12 [AA, asiatic acid] | 133 to 259 | 2 | 364 ± 114 | 124 ± 29 | 2 ± 0.6 | 3.8 ± 1 | 935 ± 178 | 259 ± 24 | 2 ± 0.6 | 2.2 ± 0.5 | 0.5 | predominantly in the conjugated form | – | – | – | 0.5 ± 5 | – | Time of plasma peak post consumption [7]: 2.7 h; Tmax post-ingestion [8]: 4.0 to 4.6 h; Detection in 10 h post-administration urine [2]: very low concentrations; Cmax ([1]; oral, 2 g): 99 ng/mL; Tmax ([1]; oral, 2 g): 3 h; Cmax ([1]; oral, 4 g): 206 ng/mL; Tmax ([1]; oral, 4 g): 2.5 h; Time of larger secondary peak of plasma concentration-time curve [1]: 2.5 h and 2.5 to 3 h |
| C[C@H]1[C@H](C)CC[C@]2(C(=O)O[C@@H]3O[C@H](CO[C@@H]4O[C@H](CO)[C@@H](O[C@@H]5O[C@@H](C)[C@H](O)[C@@H](O)[C@H]5O)[C@H](O)[C@H]4O)[C@@H](O)[C@H](O)[C@H]3O)CC[C@]3(C)C(=CC[C@@H]4[C@@]5(C)C[C@@H](O)[C@H](O)[C@@](C)(CO)[C@@H]5[C@H](O)C[C@]43C)[C@H]12 [MS, madecassoside] | – | – | – | – | – | – | – | – | – | – | – | predominantly free form | – | – | – | – | – | Plasma concentration after single administration of modified ECa233 [9]: 10 to 13 ng/mL; Detection in 10 h post-administration urine [2]: small amounts; Amount in the 10 h urine ([2]; after 2 g or 4 g CAP): 1 to 8 µg; Plasma levels ([1]; all time points, 2 g and 4 g CAP): below the lower limit of quantitation (LLOQ) |
| O=C(O)/C=C/c1ccc(O)c(O)c1 [CA, caffeic acid] | 0.3 to 0.5 | 6 | 1 ± 1 | – | – | 2.6 | 3 ± 0.3 | 1 ± 0.1 | 4 ± 1 | 3.5 ± 1.2 | – | – | – | – | 184 ± 144 | 260 ± 140 | 0.8 ± 0.6 | Cmax (clinical): 0.3 ± 0.2 ng/mL |
